Results taken from patent US20220273709A1, “DEVELOPMENT OF THERAPY FOR IMPROVING MYOCARDIAL CONTRACTION AND METHOD FOR INHIBITING CARDIOMYOCYTE DEATH” (KYUSHU UNIVERSITY, NATIONAL UNIVERSITY CORPORATION, priority 2019, published 2022).

Experiments:
[1] = test system: mice with DOX cardiomyopathy; assay: Effect of αGalCer on DOX mice: cardiac function and inflammatory cytokines; format: in vivo; conditions: for apoptosis of myocardial cells (TUNEL staining) / left ventricular end-systolic dimension (LVDs) / left ventricular fractional shortening rate (FS): DOX group or GalCer+DOX group; for WH/TL and LV/TL: DOX group vs Control, GalCer+DOX group vs DOX group
Protocol: 10-week-old male C57BL/6J mice were divided into four groups of a Control group, a GalCer group, a DOX group, and a GalCer+DOX group. Hereinafter, the administration method will be described by setting the day when doxorubicin was initially administered as Day 0 (FIG. 4(a)).
PBS (phosphate buffered saline) was intraperitoneally administered (ip) and physiological saline was intravenously administered to the mice of the Control group on Day-7 (7 days before Day 0).
αGalCer (0.1 μg/g) was intraperitoneally administered (ip) to the mice of the GalCer group on Day-7, and physiological saline was intravenously administered thereto on Days 0, 2, and 4.
PBS was intraperitoneally administered (ip) to the mice of the DOX group on Day-7, and doxorubicin (6 mg/kg) was intravenously administered thereto on Days 0, 2, and 4.
αGalCer (0.1 μg/g) was intraperitoneally administered (ip) to the mice of the Galfer+DOX group on Day-7, and doxorubicin (6 mg/kg) was intravenously administered thereto on Days 0, 2, and 4.
The body weight, the blood pressure, the echocardiogram, the organ weight, the expression level of Vα14Jα18, the cardiac function, and inflammatory cytokines of each mouse at the time point of Day 14 were evaluated. Echocardiography was performed by anesthetizing mice with pentobarbital using an ultrasonic recording device EUB-8000 (trade name of Hitachi Medical Corporation). The left ventricular end-diastolic dimension and the left ventricular systolic end-systolic dimension were measured from the echo image, and the left ventricular fractional shortening rate serving as an index of the left ventricular contractility was calculated by an expression of “(left ventricular end-diastolic dimension—left ventricular systolic end-systolic dimension)left ventricular end-diastolic dimension×100”.

Balb/c mice = assay: Difference between α-GalCer administration and α-GalCer/DC administration (western blotting of Stat1, Stat6); format: in vivo; conditions: only α-GalCer administered, 4 days
Protocol: The differences in expression levels of proteins Stat1 and Stat6 and degrees of phosphorylation in a case where only α-GalCer was administered and in a case where DC was administered as a carrier (that is, α-GalCer/DC was administered, the number of administered cells: 3×10^6) were evaluated by western blotting.
In the test, α-GalCer alone or α-GalCer/DC was administered to the Balb/c mice, and the expression level of each protein in the myocardium 4 days after the administration was evaluated by western blotting.

[2] = test system: mice with DOX cardiomyopathy; assay: Effect of αGalCer on DOX mice: cardiac function and inflammatory cytokines; format: in vivo; conditions: Days 7 and 14
humans = conditions: systemically administered to humans; cited from earlier work
myocardial fibroblasts = assay: TGFβ administration to myocardial fibroblasts pretreated with IFNγ; format: cell-based
Protocol: The changes in expression levels of proteins when TGFβ was administered to myocardial fibroblasts pretreated with IFNγ were evaluated.
FIG. 39(a) is a western blot showing the expression levels of proteins (pSmad2, Smad2, pSmad3, and Smad3) when TGFβ was administered to myocardial fibroblasts pretreated with IFNγ (n=4). FIG. 39(b) is a graph quantifying the results of FIG. 39(a). The dose of IFNγ used for the pretreatment is 0, 1, 10, or 50 ng/mL, and the dose of TGFβ is 10 ng/mL. In the control group (CTL), neither IFNγ nor TGFβ was administered. Each graph is shown as a relative value in which the phosphorylation ratio (for example, pSmad2Smad2) in the CTL group is set to 1.0. When TGFβ was administered, Smad2 and Smad3 were phosphorylated, and the expression levels of pSmad2 and pSmad3 were increased.
FIG. 39(c) is a graph showing the expression levels of proteins (Ctgf, Col1a, and Col3a) when TGFβ was administered to myocardial fibroblasts pretreated with IFNγ (n=3 to 6). The dose of IFNγ used for the pretreatment is 0, 1, 10, or 50 ng/mL, and the dose of TGFβ is 10 ng/mL. Each graph is shown as a relative value in which the phosphorylation ratio (for example, pSmad2Smad2) in the CTL group is set to 1.0. In the graph, ** represents P<0.01, which is at a significant level with respect to the expression level of the CTL group.

[3] = test system: cultured myocardial cells; assay: IFN-γ stimulation of cultured myocardial cells, pPLN and p-Stat1 (SDS-PAGE); format: cell-based
Protocol: The cultured myocardial cells were stimulated by adding IFN-γ solutions with three different concentrations (1, 10, and 50 ng/mL), and changes in concentration of pPLN were evaluated by ^-the SDS-PAGE method.
The cultured myocardial cells were stimulated by adding 50 ng/mL of an IFN-γ solution, and a change in concentration of pPLN over time was evaluated by the SDS-PAGE method.

[4] = test system: primary cultured myocardial fibroblasts; assay: Fibrosis gene expression in myocardial fibroblasts after IFNγ, IL4 or IL10; format: cell-based; conditions: 1, 10, and 50 ng/mL, vs non-administration group (Veh)
Protocol: The changes in expression levels of genes (Ctgf Col1a, and Col3a) involved in fibrosis after IFNγ, IL4, or IL10 was administered to primary cultured myocardial fibroblasts were evaluated in order to investigate the mechanism by which the TGF β-Smad signaling system was inhibited due to the administration of α-GalCer/DC (number of administered cells: 3×10^6).
FIG. 38 is a graph showing changes in the expression levels of genes (Ctgf, Col1a, and Col3a) after the administration of IFNγ, IL4, or IL10 to myocardial fibroblasts. IFNγ, IL4, and IL10 were respectively administered at concentrations of 1, 10, and 50 ng/mL. Rps18 was used as an intrinsic control. “Veh” in the graphs represents a non-administration group (Vehicle).

[5] = test system: primary cultured myocardial fibroblasts; assay: Stat expression and phosphorylation in myocardial fibroblasts treated with IFNγ, IL4 or IL10; format: cell-based; conditions: vs CTL
Protocol: The primary cultured myocardial fibroblasts were treated with IFNγ, IL4, or IL10, and each of the expression levels of proteins (Stat1, Stat6, and Stat3) and the phosphorylation thereof were evaluated.

[6] = test system: offspring rat myocardial cells; assay: Changes in expression levels of Angpt1 due to cytokine administration; format: cell-based; conditions: vs CTL group
Protocol: The changes in the expression levels of an angiogenic factor Angpt1 after administration of IFNγ, IL4, or IL10 to offspring rat myocardial cells were evaluated (each n=3).

[7] = test system: primary cultured offspring rat myocardial cells; assay: Stat phosphorylation in primary cultured offspring rat myocardial cells after IFNγ, IL4 or IL10; format: cell-based
Protocol: IFNγ, IL4 or IL10 was administered to primary cultured offspring rat myocardial cells, and the changes in phosphorylation of proteins (Stat1, Stat6, and Stat3) were evaluated.

[8] = test system: inflammatory cells; myocardial cells; assay: Cell death after IFNγ administration to inflammatory cells or myocardial cells; format: cell-based
male C57BL6J mice = assay: Doxorubicin-induced cardiomyopathy model mice (DOX mouse): body weight, echocardiography, NKT cells and inflammatory cytokines in myocardium; format: in vivo
Protocol: Doxorubicin (6 mg/kg) was intravenously administered to male
C57BL6J mice aged 10 to 11 weeks from the tail vein once every two days. That is, in a case where the day when doxorubicin was initially administered was set to Day 0, doxorubicin was injected on Day 2 and Day 4 (total of 3 times of administration). At each time point of Day 0, 7, 14, 21, and 28, weight measurement and echocardiography were performed to evaluate the amounts of NKT cells and the expression levels of inflammatory cytokines in the myocardium.

[9] = IFNγ pretreatment 1, 10, or 50 ng/mL, then TGFβ 10 ng/mL
[10] = doxorubicin 6 mg/kg iv Days 0, 2, 4, Days 0 to 28

With CCCCCCCCCCCCCCCCCCCCCCCCCC(=O)N[C@@H](CO[C@H]1O[C@H](CO)[C@H](O)[C@H](O)[C@H]1O)[C@H](O)[C@H](O)CCCCCCCCCCCCCC [αGalCer, α-Galactosylceramide] the “apoptosis of myocardial cells (TUNEL staining)” value [1] was “inhibited”, the “left ventricular end-systolic dimension (LVDs)” value ([1]; Day 14) was “improved to the same extent as the mice in the other groups” and the “left ventricular fractional shortening rate (FS)” value ([1]; Day 14) was “improved to the same extent as the mice in the other groups”. For the same molecule, the “WH/TL and LV/TL” value ([1]; Day 14) was “improved”, the “increase of expression level of Vα14Jα18” value ([1]; αGalCer 0.1 μg/g ip Day-7, mice with DOX cardiomyopathy, Day 14) was “approximately 10.6 times” and the “activation reaction of Stat1 in the myocardium” value (Balb/c mice) was “extremely weak”. For the same molecule, the “dose dependence of Stat1 activation” value (Balb/c mice) was “not observed”, the “expression level of IFNγ” value [2] was “increased” and the “expression levels of inflammatory cytokines” value [2] was “without decreasing”. For the same molecule, the liver damage (humans) was “serious liver damage”.

With TGFβ the “expression levels of Ctgf, Col1a, and Col3a” value (myocardial fibroblasts; TGFβ 10 ng/mL, no pretreatment) was “increased” and the “expression levels of pSmad2 and pSmad3” value (myocardial fibroblasts; TGFβ 10 ng/mL, no pretreatment) was “increased”.

For “IFNγ: interferon (IFN)-γ, cytokine added to cultured cells”, the p-Stat1 over time ([3]; IFN-γ 50 ng/mL) was “increased immediately after the stimulation”, the pPLN over time ([3]; IFN-γ 50 ng/mL) was “phosphorylated with a slight delay” and the “phosphorylation of PLN” value ([3]; IFN-γ 1, 10, and 50 ng/mL) was “phosphorylated”. For the same molecule, the “expression levels of genes (Ctgf, Col1a, and Col3a)” value (shortened to “expression levels of genes”) [4] was “significantly decreased in a dose-dependent manner”, the “increase in expression levels of Ctgf, Col1a, and Col3a due to TGFβ” value (myocardial fibroblasts; [9]) was “inhibited in a dose-dependent manner” and the “phosphorylation ratio of Smad2 and Smad3” value (myocardial fibroblasts; [9]) was “decreased in a dose-dependent manner”. The “expression levels and phosphorylation of Stat1” value [5] was “increased”, the “expression levels of Angpt1” value [6] was “increased in a dose-dependent manner” and the “phosphorylation of Stat1 by αGalCer/DC observed in myocardial tissues, reproduction in cultured myocardial cells” value (from here on “phosphorylation … in cultured myocardial cells”) [7] was “reproduced”. The “cell death of inflammatory cells” value [8] was “easily caused cell death”.

For COc1cccc2c1C(=O)c1c(O)c3c(c(O)c1C2=O)C[C@@](O)(C(=O)CO)C[C@@H]3O[C@H]1C[C@H](N)[C@H](O)[C@H](C)O1 [doxorubicin], the “expression level of IL-6” value (male C57BL6J mice; Day 7, vs Control) was “significantly increased”, the “expression levels of IL-1β and TNF-α” value (male C57BL6J mice; Day 7, vs Control) was “decreased” and the “expression levels of IL-1β, IL-6, and TNF-α” value (male C57BL6J mice; Day 14, vs doxorubicin non-administration group) was “all significantly increased”. For the same molecule, the “expression level of Vα14Jα18” value (male C57BL6J mice; Days 7 and 14, Control set to 1) was “decreased”, the “body weight (BW)” value (male C57BL6J mice; [10]) was “reduced after Day 7 tended to gradually increase” and the “left ventricular fractional shortening rate (FS)” value (male C57BL6J mice; [10]) was “not improved”. The “apoptosis of myocardial cells (TUNEL staining)” value [1] was “observed”, the “left ventricular end-systolic dimension (LVDs)” value ([1]; Day 14) was “large” and the “left ventricular fractional shortening rate (FS)” value ([1]; Day 14) was “small”. The “WH/TL and LV/TL” value ([1]; Day 14) was “significantly reduced”.

B1: IL4: interleukin-4, cytokine added to cultured cells (protein, UniProt P05112 25-153, looked up)
Interleukin-4: HKCDITLQEIIKTLNSLTEQKTLCTELTVTDIFAASKNTTEKETFCRAATVLRQFYSHHEKDTRCLGATAQQFHRHKQLIRFLKRLDRNLWGLAGLNSCPVKEANQSTLENFLERLKTIMREKYSKCSS
In the case of B1, the “expression levels of genes” value [4] is reported as “the same as those in the non-administration group”, the “phosphorylation of Stat6” value [5] is reported as “increased in a dose-dependent manner” and the “expression levels of Angpt1” value [6] is reported as “not increased”. For the same molecule, the “phosphorylation … in cultured myocardial cells” value [7] was “reproduced”.

B2: IL10: interleukin-10, cytokine added to cultured cells (protein, UniProt P22301 19-178, looked up)
Interleukin-10: SPGQGTQSENSCTHFPGNLPNMLRDLRDAFSRVKTFFQMKDQLDNLLLKESLLEDFKGYLGCQALSEMIQFYLEEVMPQAENQDPDIKAHVNSLGENLKTLRLRLRRCHRFLPCENKSKAVEQVKNAFNKLQEKGIYKAMSEFDIFINYIEAYMTMKIRN
With B2 the “expression levels of genes” value [4] was “the same as those in the non-administration group”, the “phosphorylation of Stat6” value [5] was “not found” and the “expression levels of Angpt1” value [6] was “not increased”. The “phosphorylation … in cultured myocardial cells” value [7] was “not reproduced”.

B3: IFNγ: interferon (IFN)-γ, cytokine added to cultured cells (protein, UniProt P01579 24-161, looked up)
Interferon gamma: QDPYVKEAENLKKYFNAGHSDVADNGTLFLGILKNWKEESDRKIMQSQIVSFYFKLFKNFKDDQSIQKSVETIKEDMNVKFFNSNKKKRDDFEKLTNYSVTDLNVQRKAIHELIQVMAELSPAAKTGKRKRSQMLFRG
In the case of B3, the “cell death of myocardial cells” value [8] is reported as “did not cause cell death”.
